Measurements taken from PMC10354048 (Communications Chemistry, 2023).
≈ marks a conversion by molar mass, not a printed value. Where no end group is shown, it is not given here.

Assays:
Experiment in all cases: microbe, parasite or virus in culture
S. aureus CW114125 = conditions: for MIC: Staphylococcus aureus, CW114125, 20 h, read-out: Minimum inhibitory concentration S. aureus CW114125; for Minimum inhibitory concentration S. aureus CW114125: broth microdilution per CSLI guidelines, cation-adjusted Mueller Hinton Broth 2, 5 × 10^5 CFU/mL, 37 °C, 20 h, range 64–0.125 µg/mL, average of three repeat assays
Protocol: (§1) Minimum inhibitory concentrations, determined by broth microdilution, are expressed as an average of three repeat assays. […] [a] MIC values expressed in μg/mL, [b] AC: American Type Culture Collection strain, [c] CW: CANWARD collection clinical isolate strain.33.
(§2) Minimum Inhibitory Concentrations (MIC) were determined for each of the bacteriocins and controls using a broth microdilution method, as per CSLI guidelines for microbial susceptibility testing. The peptides were dissolved in sterile deionized water to prepare the working stocks, with concentrations determined by UV absorbance at 280 nm[56]. Overnight cultures from the strains of interest were incubated with shaking overnight at 37 °C. Cation-adjusted Mueller Hinton Broth 2 (MHB 2) was used for the S. aureus, and S. epidermidis strains and Brain Heart Infusion (BHI) broth was utilized for the E. faecalis and E. faecium strains. The cultures were prepared and diluted to the turbidity of a 0.5 McFarland standard using MHB or BHI fresh media. Increasing concentrations of the leaderless bacteriocins were added to a 96-well polypropylene plate. The range tested for each bacteriocin was 64–0.125 µg/mL. The bacterial culture was further diluted and mixed in a 1:1 ratio with the bacteriocin solution to yield a final concentration in the wells of 5 × 10^5 CFU/mL. […] A 1:1000 dilution of the growth control was prepared in the respective media and plated onto agar (100 μL) to ensure the correct inoculum concentration (5 × 10^5 CFU/mL indicated by ≈ 50 bacterial colonies). The 96-well and agar plates were incubated at 37 °C, and growth was assessed by the formation of a pellet observable with the naked eye after 20 h. […] Each assay was performed in triplicate.
(§3) Materials and instruments […]
(§4) Minimum Inhibitory Concentration (MIC)
(§5) assays were conducted in 96-Well Clear polypropylene corner notch microplates (Corning, #11313595). For the […]

S. aureus AC29213 = conditions: for MIC: Staphylococcus aureus, AC29213, 20 h, read-out: Minimum inhibitory concentration S. aureus AC29213; for Minimum inhibitory concentration S. aureus AC29213: broth microdilution per CSLI guidelines, cation-adjusted Mueller Hinton Broth 2, 5 × 10^5 CFU/mL, 37 °C, 20 h, range 64–0.125 µg/mL, average of three repeat assays
Protocol: as §1, §2, §3, §4, §5

S. epidermidis CW131612 = conditions: for MIC: Staphylococcus epidermidis, CW131612, 20 h, read-out: Minimum inhibitory concentration S. epidermidis CW131612; for Minimum inhibitory concentration S. epidermidis CW131612: broth microdilution per CSLI guidelines, cation-adjusted Mueller Hinton Broth 2, 5 × 10^5 CFU/mL, 37 °C, 20 h, range 64–0.125 µg/mL, average of three repeat assays
Protocol: as §1, §2, §3, §4, §5

S. aureus CW113379 = conditions: for MIC: Staphylococcus aureus, CW113379, 20 h, read-out: Minimum inhibitory concentration S. aureus CW113379; for Minimum inhibitory concentration S. aureus CW113379: broth microdilution per CSLI guidelines, cation-adjusted Mueller Hinton Broth 2, 5 × 10^5 CFU/mL, 37 °C, 20 h, range 64–0.125 µg/mL, average of three repeat assays
Protocol: as §1, §2, §3, §4, §5

S. aureus CW115852 = conditions: for MIC: Staphylococcus aureus, CW115852, 20 h, read-out: Minimum inhibitory concentration S. aureus CW115852; for Minimum inhibitory concentration S. aureus CW115852: broth microdilution per CSLI guidelines, cation-adjusted Mueller Hinton Broth 2, 5 × 10^5 CFU/mL, 37 °C, 20 h, range 64–0.125 µg/mL, average of three repeat assays
Protocol: as §1, §2, §3, §4, §5

S. epidermidis CW130500 = conditions: for MIC: Staphylococcus epidermidis, CW130500, 20 h, read-out: Minimum inhibitory concentration S. epidermidis CW130500; for Minimum inhibitory concentration S. epidermidis CW130500: broth microdilution per CSLI guidelines, cation-adjusted Mueller Hinton Broth 2, 5 × 10^5 CFU/mL, 37 °C, 20 h, range 64–0.125 µg/mL, triplicate
Protocol: as §2, §3
(§6) Minimum Inhibitory Concentration (MIC) assays were conducted in 96-Well Clear polypropylene corner notch microplates (Corning, #11313595). For the assay media, cation adjusted Mueller Hinton Broth 2 (Sigma Aldrich, #90922) was used for the S. aureus, and S. epidermidis strains and Brain Heart Infusion broth (BD, #221812) was used for the E. faecalis and E. faecium […]
(§7) used, as well as melittin prepared by automated SPPS. Experimental bacterial strains used were procured from the American Type Culture collection (S. aureus 29213) and the Canadian Antimicrobial Resistance Alliance

E. faecalis CW133003 = conditions: for Minimum inhibitory concentration E. faecalis CW133003: broth microdilution per CSLI guidelines, Brain Heart Infusion broth, 5 × 10^5 CFU/mL, 37 °C, 20 h, range 64–0.125 µg/mL, average of three repeat assays
Protocol: as §1, §2, §3, §4, §5

E. faecium CW130826 = conditions: for Minimum inhibitory concentration E. faecium CW130826: broth microdilution per CSLI guidelines, Brain Heart Infusion broth, 5 × 10^5 CFU/mL, 37 °C, 20 h, range 64–0.125 µg/mL, triplicate
Protocol: as §2, §3, §6, §7

E. faecalis CW133346 = conditions: for Minimum inhibitory concentration E. faecalis CW133346: broth microdilution per CSLI guidelines, Brain Heart Infusion broth, 5 × 10^5 CFU/mL, 37 °C, 20 h, range 64–0.125 µg/mL, triplicate
Protocol: as §2, §3, §6, §7

E. faecium CW131126 = conditions: for Minimum inhibitory concentration E. faecium CW131126: broth microdilution per CSLI guidelines, Brain Heart Infusion broth, 5 × 10^5 CFU/mL, 37 °C, 20 h, range 64–0.125 µg/mL, triplicate
Protocol: as §2, §3, §6, §7

Row | Compound | MIC (S. aureus CW114125) [mg/L] | MIC (S. aureus AC29213) [mg/L] | MIC (S. epidermidis CW131612) [mg/L] | MIC (S. aureus CW113379) [mg/L] | MIC (S. aureus CW115852) [mg/L] | MIC (S. epidermidis CW130500) [mg/L] | Minimum inhibitory concentration S. aureus CW114125 (S. aureus CW114125) [mg/L] | Minimum inhibitory concentration E. faecalis CW133003 (E. faecalis CW133003) [mg/L] | Minimum inhibitory concentration S. aureus AC29213 (S. aureus AC29213) [mg/L] | Minimum inhibitory concentration S. epidermidis CW131612 (S. epidermidis CW131612) [mg/L] | Minimum inhibitory concentration S. aureus CW113379 (S. aureus CW113379) [mg/L] | Minimum inhibitory concentration S. aureus CW115852 (S. aureus CW115852) [mg/L] | Minimum inhibitory concentration E. faecium CW130826 (E. faecium CW130826) [mg/L] | Minimum inhibitory concentration S. epidermidis CW130500 (S. epidermidis CW130500) [mg/L] | Minimum inhibitory concentration E. faecalis CW133346 (E. faecalis CW133346) [mg/L] | Minimum inhibitory concentration E. faecium CW131126 (E. faecium CW131126) [mg/L] | MIC (E. faecalis CW133003; Enterococcus faecalis, CW133003, 20 h, read-out: Minimum inhibitory concentration E. faecalis CW133003) [mg/L] | MIC (E. faecium CW130826; Enterococcus faecium, CW130826, 20 h, read-out: Minimum inhibitory concentration E. faecium CW130826) [mg/L] | MIC (E. faecalis CW133346; Enterococcus faecalis, CW133346, 20 h, read-out: Minimum inhibitory concentration E. faecalis CW133346) [mg/L] | MIC (E. faecium CW131126; Enterococcus faecium, CW131126, 20 h, read-out: Minimum inhibitory concentration E. faecium CW131126) [mg/L]
1 | CC1(C)S[C@@H]2[C@H](NC(=O)[C@H](N)c3ccccc3)C(=O)N2[C@H]1C(=O)O [Ampicillin, ampicillin, reference compound] | 16 (≈ 45.8 µM) | 2 (≈ 5.72 µM) | > 64 | 32 (≈ 91.6 µM) | 4 (≈ 11.4 µM) | 8 (≈ 22.9 µM) | – | – | – | – | – | – | – | – | – | – | – | – | – | –
2 | CC[C@H](C)[C@H](NC(=O)CN)C(=O)NCC(=O)N[C@@H](C)C(=O)N[C@H](C(=O)N[C@@H](CC(C)C)C(=O)N[C@@H](CCCCN)C(=O)N[C@H](C(=O)N[C@@H](CC(C)C)C(=O)N[C@H](C(=O)N[C@H](C(=O)NCC(=O)N[C@@H](CC(C)C)C(=O)N1CCC[C@H]1C(=O)N[C@@H](C)C(=O)N[C@@H](CC(C)C)C(=O)N[C@H](C(=O)N[C@@H](CO)C(=O)N[C@@H](Cc1c[nH]c2ccccc12)C(=O)N[C@H](C(=O)N[C@@H](CCCCN)C(=O)N[C@@H](CCCNC(=N)N)C(=O)N[C@@H](CCCCN)C(=O)N[C@@H](CCCNC(=N)N)C(=O)N[C@@H](CCC(N)=O)C(=O)N[C@@H](CCC(N)=O)C(N)=O)[C@@H](C)CC)[C@@H](C)CC)[C@@H](C)O)[C@@H](C)O)C(C)C)C(C)C [Melittin, melittin, reference compound] | – | – | – | – | – | – | 8 (≈ 2.81 µM) | 16 (≈ 5.62 µM) | 8 (≈ 2.81 µM) | 4 (≈ 1.41 µM) | 4 (≈ 1.41 µM) | 4 (≈ 1.41 µM) | 8 (≈ 2.81 µM) | 8 (≈ 2.81 µM) | 16 (≈ 5.62 µM) | 8 (≈ 2.81 µM) | – | – | – | –
3 | CN(C)[C@@H]1C(O)=C(C(N)=O)C(=O)[C@@]2(O)C(O)=C3C(=O)c4c(O)cccc4[C@@](C)(O)[C@H]3C[C@@H]12 [Tetracycline, tetracycline, reference compound] | 32 (≈ 72 µM) | < 0.125 | 1 (≈ 2.25 µM) | 16 (≈ 36 µM) | 8 (≈ 18 µM) | < 0.125 | – | – | – | – | – | – | – | – | – | – | 1 (≈ 2.25 µM) | 0.25 (≈ 0.563 µM) | 64 (≈ 144 µM) | > 64
4 | MAGFLKVVQLLAKYGSKAVQLAWANKGKILDWLNAGQAIDWVVSKIKQILGIK-NH2 [L-W21L, L-lacticin Q W21L (Met^1-Lys^53)] | – | – | – | – | – | – | 32 | 8 | 16 | 16 | 16 | 32 | 4 | 16 | 4 | 4 | – | – | – | –
5 | MAGFLKVVQLLAKYGSKAVQWALANKGKILDWLNAGQAIDWVVSKIKQILGIK-NH2 [L-W23L, L-lacticin Q W23L (Met^1-Lys^53)] | – | – | – | – | – | – | > 64 | 4 | 32 | 32 | 64 | 64 | – | – | 8 | 4 | – | – | – | –
6 | MAGFLKVVQLLAKYGSKAVQWAWANKGKILDLLNAGQAIDWVVSKIKQILGIK-NH2 (C-terminus assumed) [L-W32L, L-lacticin Q W32L (Met^1-Lys^53)] | – | – | – | – | – | – | 64 | 4 | 64 | 16 | 32 | 32 | 2 | 16 | 4 | 4 | – | – | – | –
7 | MAGFLKVVQLLAKYGSKAVQWAWANKGKILDWLNAGQAIDLVVSKIKQILGIK-NH2 (C-terminus assumed) [L-W41L, L-lacticin Q W41L (Met^1-Lys^53)] | – | – | – | – | – | – | > 64 | 64 | > 64 | > 64 | > 64 | > 64 | – | – | – | 8 | – | – | – | –
8 | MAGFLKVVQLLAKYGSKAVQWAWANKGKILDWLNAGQAIDWVVSKIKQILGIK-NH2 [L-LnqQ, L-lacticin Q (Met^1-Lys^53)] | – | – | – | – | – | – | 32 | 2 | 16 | 8 | 32 | 64 | 2 | 16 | 4 | 2 | – | – | – | –
9 | MSLLNFLKYIAKYGKKAVSAAWKYKGKVLEWLNVGPTLEWVWQKLKKIAGL-NH2 [L-W3L, L-aureocin A53 W3L (Met^1-Leu^51)] | – | – | – | – | – | – | 4 | 16 | 4 | 4 | 4 | 32 | 2 | 4 | 4 | 4 | – | – | – | –
10 | MSWLNFLKYIAKYGKKAVSAALKYKGKVLEWLNVGPTLEWVWQKLKKIAGL-NH2 [L-W22L, L-aureocin A53 W22L (Met^1-Leu^51)] | – | – | – | – | – | – | 8 | 16 | 2 | 4 | 16 | 16 | 2 | 8 | 4 | 4 | – | – | – | –
